This note sets out measurements from patent US7868204B2, “Inhibitors of histone deacetylase” (MethylGene Inc., priority 2001, dated 2011).

Assay [1] concerns the target T1, cloned recombinant human HDAC-1 (Homo sapiens, UniProt Q13547).
T1 construct: made in house; host or cells: Baculovirus insect cell expression system
Briefly: Human HDAC-1 enzyme inhibition, Assay 1 ([3H]-acetylated histone substrate, scintillation counting). The format is biochemical. The following applies: Table 5d; read-out: HDAC-1 IC50. As to the method: Assay 1. HDAC inhibitors were screened against a cloned recombinant human HDAC-1 enzyme expressed and purified from a Baculovirus insect cell expression system. […] The mixture was extracted with ethyl acetate and the released [^3H]-acetic acid was quantified by scintillation counting. For inhibition studies, the enzyme was preincubated with compounds at 4° C. for 30 minutes prior to initiation of the enzymatic assay. IC50 values for HDAC enzyme inhibitors were determined by performing dose response curves with individual compounds and determining the concentration of inhibitor producing fifty percent of the maximal inhibition.

In a further assay the test system is HCT116 cells. Description: MTT assay. In kind it is cell-based. The following applies: Homo sapiens, HCT-116, Table 5d; HCT116 cells, 72 hours. As to the method: HCT116 cells (2000/well) were plated into 96-well tissue culture plates one day before compound treatment. Compounds at various concentrations were added to the cells. The cells were incubated for 72 hours at 37° C. in 5% CO2 incubator. MTT (3-[4,5-dimethylthiazol-2-yl]-2,5 diphenyl tetrazolium bromide, Sigma) was added at a final concentration of 0.5 mg/ml and incubated with the cells for 4 hours before one volume of solubilization buffer (50% N,N-dimethylformamide, 20% SDS, pH 4.7) was added onto the cultured cells. […] OD values were converted to cell numbers according to a standard growth curve of the relevant cell line.
For orientation: Tetrazolium dyes change colour on reduction, which living cells bring about.

T1 sequence (Q13547 whole entry): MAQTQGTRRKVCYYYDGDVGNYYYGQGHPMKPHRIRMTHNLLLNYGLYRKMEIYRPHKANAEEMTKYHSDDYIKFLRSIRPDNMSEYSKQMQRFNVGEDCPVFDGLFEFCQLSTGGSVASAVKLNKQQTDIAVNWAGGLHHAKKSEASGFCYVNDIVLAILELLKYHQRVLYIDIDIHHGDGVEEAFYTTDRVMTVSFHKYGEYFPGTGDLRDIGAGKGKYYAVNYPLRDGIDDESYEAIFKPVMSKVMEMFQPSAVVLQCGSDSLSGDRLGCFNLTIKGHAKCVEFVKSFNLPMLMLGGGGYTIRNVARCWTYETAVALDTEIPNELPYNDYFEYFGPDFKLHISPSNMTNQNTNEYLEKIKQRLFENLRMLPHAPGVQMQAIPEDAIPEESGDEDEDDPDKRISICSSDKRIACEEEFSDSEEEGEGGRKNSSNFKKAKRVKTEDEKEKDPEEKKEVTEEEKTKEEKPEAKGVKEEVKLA

What is called IC50 is the point on the concentration scale where inhibition reaches its midpoint. For the molecule `Nc1ccccc1NC(=O)/C=C/c1ccc(CNc2cc([N+](=O)[O-])cc([N+](=O)[O-])c2)cc1` [Cpd 495], the IC50 in assay [1] amounted to 4 µM; in the assay with HCT116 cells it was 7 µM.
For `Nc1ccccc1NC(=O)/C=C/c1ccc(NCc2cccc(OC(F)(F)F)c2)cc1` [Cpd 496, N-(2-Amino-phenyl)-3-[4-(3-trifluoromethoxy-benzylamino)-phenyl]-acrylamide], in that order: 8 µM and 13 µM.
For `COc1cc(OCc2ccc(/C=C/C(=O)Nc3ccccc3N)cc2)cc(OC)c1OC` [Cpd 497, N-(2-Amino-phenyl)-3-[4-(3,4,5-trimethoxy-phenoxymethyl)-phenyl]-acrylamide], in that order: 15 µM and 6 µM.
In the case of `COc1cc(SCc2ccc(/C=C/C(=O)Nc3ccccc3N)cc2)cc(OC)c1OC` [Cpd 500, N-(2-Amino-phenyl)-3-[4-(3,4,5-trimethoxy-phenylsulfanylmethyl)-phenyl]-acrylamide], the IC50 in assay [1] was 23 µM; with HCT116 cells it was 37 µM.
In the case of `CC(=O)c1cc2c(cc1NCc1ccc(/C=C/C(=O)Nc3ccccc3N)cc1)OCO2` [Cpd 501, 3-{4-[(6-Acetyl-benzo[1,3]dioxol-5-ylamino)-methyl]-phenyl}-N-(2-amino-phenyl)-acrylamide], the IC50 in assay [1] worked out at 4 µM; with HCT116 cells, 10 µM.
For `COc1ccc2nc(NCc3ccc(/C=C/C(=O)Nc4ccccc4N)cc3)sc2c1` [Cpd 502], the IC50 is 3 µM in assay [1] and greater than 25 µM with HCT116 cells.
Consider `Nc1ccccc1NC(=O)/C=C/c1ccc(CNc2ccc(N3CCOCC3)cc2)cc1` [Cpd 503, N-(2-Amino-phenyl)-3-{4-[(4-morpholin-4-yl-phenylamino)-methyl]-phenyl}-acrylamide], for which the IC50 in assay [1] was 5 µM; with HCT116 cells, greater than 25 µM.
Consider `Nc1ccccc1NC(=O)/C=C/c1ccc(CNc2ccc(OC(F)(F)F)cc2)cc1` [Cpd 504, N-(2-Amino-phenyl)-3-{4-[(4-trifluoromethoxy-phenylamino)-methyl]-phenyl}-acrylamide], for which the results for the IC50 (in assay [1]; with HCT116 cells) were 5 µM and greater than 25 µM, respectively.
On to `Nc1ccccc1NC(=O)/C=C/c1ccc(CNc2ccc3c(c2)OCO3)cc1` [Cpd 505, N-(2-Amino-phenyl)-3-[4-(benzo[1,3]dioxol-5-ylaminomethyl)-phenyl]-acrylamide], for which the IC50 amounted to 3 µM in assay [1] and 6 µM with HCT116 cells.
Turning to `Nc1ccccc1NC(=O)/C=C/c1ccc(CNc2cccc(OC(F)(F)F)c2)cc1` [Cpd 506, N-(2-Amino-phenyl)-3-{4-[(3-trifluoromethoxy-phenylamino)-methyl]-phenyl}-acrylamide], the IC50 in assay [1] stood at 15 µM; in the assay with HCT116 cells, 11 µM.
For the molecule `CC(C)c1ccc(NCc2ccc(/C=C/C(=O)Nc3ccccc3N)cc2)cc1` [Cpd 510, N-(2-Amino-phenyl)-3-{4-[(4-isopropyl-phenylamino)-methyl]-phenyl}-acrylamide], the values for the IC50 (in assay [1]; in the assay on HCT116 cells) were 6 µM and 5 µM, respectively.
With `Nc1ccccc1NC(=O)/C=C/c1ccc(CNc2ccc(-c3ccccc3)cc2)cc1` [Cpd 511, N-(2-Amino-phenyl)-3-[4-(biphenyl-4-ylaminomethyl)-phenyl]-acrylamide], the figures for the half-inhibitory concentration (IC50) (in assay [1]; in the assay with HCT116 cells) were 4 µM and greater than 25 µM, respectively.
With `Nc1ccccc1NC(=O)/C=C/c1ccc(Br)cc1` [Cpd 516, N-(2-Amino-phenyl)-3-(4-bromo-phenyl)-acrylamide], the IC50 (in assay [1]; in the assay on HCT116 cells) was 15 µM throughout.
With `COc1cc(OC)c(OC)cc1CNc1ccc(/C=C/C(=O)Nc2ccccc2N)cc1` [Cpd 517], the figures for the IC50 (in assay [1]; in the assay with HCT116 cells) were 6 µM and 5 µM, respectively.
As to `Nc1ccccc1NC(=O)/C=C/c1ccc(C(=O)Nc2ccccc2N)cc1` [Cpd 520, N-(2-Amino-phenyl)-4-[2-(2-amino-phenylcarbamoyl)-vinyl]-benzamide], the IC50 in assay [1] worked out at 5 µM; with HCT116 cells, 3 µM.
For the molecule `Nc1ccccc1NC(=O)/C=C/c1ccc(NCCNc2nccs2)nc1` [Cpd 522, N-(2-Amino-phenyl)-3-{6-[2-(thiazol-2-ylamino)-ethylamino]-pyridin-3-yl}-acrylamide], the figures for the IC50 (in assay [1]; in the assay on HCT116 cells) were 17 µM and 30 µM, respectively.
For `CN1CCN(c2ccc(NCc3ccc(/C=C/C(=O)Nc4ccccc4N)cc3)cc2F)CC1` [Cpd 527, N-(2-Amino-phenyl)-3-(4-{[3-fluoro-4-(4-methyl-piperazin-1-yl)-phenylamino]-methyl}-phenyl)-acrylamide], in that order: 4 µM and 3 µM.
Regarding `Nc1ccccc1NC(=O)/C=C/c1ccc(CNc2cccc(O)c2)cc1` [Cpd 528], the 50% inhibitory concentration (IC50) turned out to be 20 µM in assay [1] and 32 µM with HCT116 cells.
On to `Nc1ccccc1NC(=O)/C=C/c1ccc(CNc2nccc(C(F)(F)F)n2)cc1` [Cpd 529], for which the 50% inhibitory concentration (IC50) in assay [1] came to 5 µM; in the assay on HCT116 cells, 17 µM.
Consider `Nc1ccccc1NC(=O)/C=C/c1ccc(CNc2cccc(CO)c2)cc1` [Cpd 530, N-(2-Amino-phenyl)-3-{4-[(3-hydroxymethyl-phenylamino)-methyl]-phenyl}-acrylamide], for which the IC50 in assay [1] was determined as 8 µM; in the assay on HCT116 cells, 9 µM.
Regarding `N#Cc1cccc(NCc2ccc(C=CC(=O)Nc3ccccc3N)cc2)c1` [Cpd 532], the IC50 in assay [1] stood at 3 µM; with HCT116 cells, 5 µM.
Consider `CC(=O)NCc1cccc(NCc2ccc(/C=C/C(=O)Nc3ccccc3N)cc2)c1` [Cpd 533, 3-(4-{[3-(Acetylamino-methyl)-phenylamino]-methyl}-phenyl)-N-(2-amino-phenyl)-acrylamide], for which the IC50 amounted to 5 µM in assay [1] and 11 µM with HCT116 cells.
For the molecule `Nc1ccccc1NC(=O)/C=C/c1ccc(CNc2ccc([N+](=O)[O-])c(C(F)(F)F)c2)cc1` [Cpd 534, N-(2-Amino-phenyl)-3-{4[(4-nitro-3-trifluoromethyl-phenylamino)-methyl]-phenyl}-acrylamide], the IC50 was determined as 3 µM in assay [1] and 5 µM in the assay on HCT116 cells.
As to `Nc1ccccc1NC(=O)/C=C/c1ccc(CNc2cc(Cl)cc(Cl)c2)cc1` [Cpd 535, N-(2-Amino-phenyl)-3-{4-[(3,5-dichloro-phenylamino)-methyl]-phenyl}-acrylamide], the IC50 in assay [1] was found to be 4 µM; in the assay on HCT116 cells, 6 µM.
In the case of `COc1cc(/C=C/c2ccc(/C=C/C(=O)Nc3ccccc3N)cc2)cc(OC)c1OC` [Cpd 536, N-(2-Amino-phenyl)-3-{4-[2-(3,4,5-trimethoxy-phenyl)-vinyl]-phenyl}-acrylamide], the IC50 in assay [1] was found to be 18 µM; with HCT116 cells, 9 µM.
For `Nc1ccccc1NC(=O)/C=C/c1ccc(CNc2cccc(S(N)(=O)=O)c2)cc1` [Cpd 538, N-(2-Amino-phenyl)-3-{4-[(3-sulfamoyl-phenylamino)-methyl]-phenyl}-acrylamide], in that order: 4 µM and 12 µM.
As for `Nc1ccccc1NC(=O)/C=C/c1ccc(CNc2cccc(S(=O)(=O)NCCCN3CCOCC3)c2)cc1` [Cpd 539, N-(2-Amino-phenyl)-3-(4-{[3-(3-morpholin-4-yl-propylsulfamoyl)-phenylamino]-methyl}-phenyl)-acrylamide], the IC50 in assay [1] was found to be 2 µM; in the assay on HCT116 cells, 10 µM.
Take `COc1cc(CCc2ccc(/C=C/C(=O)Nc3ccccc3N)cc2)cc(OC)c1OC` [Cpd 540, N-(2-Amino-phenyl)-3-{4-[2-(3,4,5-trimethoxy-phenyl)-ethyl]-phenyl}-acrylamide]: the concentration for half-maximal inhibition (IC50) (in assay [1]; in the assay with HCT116 cells) was 10 µM each time.
For the molecule `Nc1ccccc1NC(=O)/C=C/c1ccc(CNc2cccc(-c3nnn[nH]3)c2)cc1` [Cpd 543, N-(2-Amino-phenyl)-3-(4-{[3-(1H-tetrazol-5-yl)-phenylamino]-methyl}-phenyl)-acrylamide], the IC50 in assay [1] is 15 µM; with HCT116 cells, greater than 25 µM.
`Nc1ccccc1NC(=O)/C=C/c1ccc(CNc2ccc(Cc3nnn[nH]3)cc2)cc1` [Cpd 544, N-(2-Amino-phenyl)-3-(4-{[4-(1H-tetrazol-5-ylmethyl)-phenylamino]-methyl}-phenyl)-acrylamide]: the IC50 in assay [1] was found to be 17 µM; with HCT116 cells, 45 µM.
Take `Nc1ccccc1NC(=O)/C=C/c1ccc(CNc2ccc(Br)cc2)cc1` [Cpd 545, N-(2-Amino-phenyl)-3-{4[(4-bromo-phenylamino)-methyl]-phenyl}-acrylamide]: the IC50 in assay [1] worked out at 2 µM; in the assay on HCT116 cells, 12 µM.
Consider `Nc1ccccc1NC(=O)/C=C/c1ccc(CNc2cccc(Br)c2)cc1` [Cpd 546, N-(2-Amino-phenyl)-3-{4-[(3-bromo-phenylamino)-methyl]-phenyl}-acrylamide], for which the IC50 in assay [1] amounted to 3 µM; with HCT116 cells it was 10 µM.
With `Nc1ccccc1NC(=O)/C=C/c1ccc(CNc2ccc(I)cc2)cc1` [Cpd 547, N-(2-Amino-phenyl)-3-{4-[(4-iodo-phenylamino)-methyl]-phenyl}-acrylamide], the results for the IC50 (in assay [1]; in the assay with HCT116 cells) were 4 µM and 8 µM, respectively.
For `Nc1ccccc1NC(=O)/C=C/c1ccc(CNc2cccc(I)c2)cc1` [Cpd 548, N-(2-Amino-phenyl)-3-{4-[(3-iodo-phenylamino)-methyl]-phenyl}-acrylamide], in that order: 3 µM and 9 µM.
`Nc1ccccc1NC(=O)/C=C/c1ccc(CNc2cccc(OCCO)c2)cc1` [Cpd 549, N-(2-Amino-phenyl)-3-(4-{[3-(2-hydroxy-ethoxy)-phenylamino]-methyl}-phenyl)-acrylamide]: the values for the IC50 (in assay [1]; in the assay on HCT116 cells) were 4 µM and 19 µM, respectively.
